Experimental data as given in PMC8742467, “Therapeutical interference with the epigenetic landscape of germ cell tumors: a comparative drug study and new mechanistical insights” (Clinical Epigenetics, 2022).
Like-named read-outs stand apart in the source and are kept apart here.

Tests used:
TCam-2 (SE) = experiment: XTT cell viability assay, TCam-2; format: cell-based; settings: Homo sapiens, read-out: EC50 colour/symbol code, SE TCam-2
Method: (§1) The […] (XTT) assays were performed as described previously. In summary, for GCT and fibroblast cell lines 5 × 10^3 cells (3 × 10^3 for UC, PCa and RCC cell lines) per 96-well were seeded and different drug concentrations (see Additional file 2: Fig. S2, Additional file 3: Fig. S3) or corresponding solvents were added to the cells the following day. For drug details see Additional file 12: Table S2 C. Each condition was analyzed in four technical replicates and EC50 values were calculated by GraphPad Prism v8.

GCT cell lines = experiment: XTT cell viability assay, GCT cell lines (pre-screen / summary); format: cell-based, Human; settings: first pre-screen, XTT, read-out: EC50
Method: as §1

JAR (CC) = experiment: XTT cell viability assay, JAR; format: cell-based; settings: Homo sapiens, after 48 h, n = 4, read-out: EC50 colour/symbol code, CC JAR
Method: as §1

2102EP (EC) = experiment: XTT cell viability assay, 2102EP; format: cell-based; settings: Homo sapiens, read-out: EC50 colour/symbol code, EC 2102EP
Method: as §1

Measured: EC50

O=C(O)C1=CC(=C(c2ccc(O)c(C(=O)O)c2)c2ccc(O)c(C(=O)O)c2)C=CC1=O [Aurintricarboxylic Acid]
> 50 µM: TCam-2 (SE); after 48 h, XTT, n = 4 | GCT cell lines; Homo sapiens, GCT | JAR (CC) | 2102EP (EC); after 48 h, XTT, n = 4

COc1cc(-c2cn(C)c(=O)c3cnccc23)c(OC)cc1CN(C)C [BI-9564]
> 50 µM: TCam-2 (SE); after 48 h, XTT, n = 4 | GCT cell lines; Homo sapiens, GCT | JAR (CC) | 2102EP (EC); after 48 h, XTT, n = 4

NNCCc1ccc(NC(=O)CCCc2ccccc2)cc1 [Bizine]
> 50 µM: GCT cell lines

CN(C)NC(=O)CCC(=O)O [Daminozide]
> 50 µM: TCam-2 (SE); 48 h | JAR (CC) | 2102EP (EC); 48 h
